Experimental data reported in ChEMBL document CHEMBL1125213 (J Med Chem, 1991).

Legend:
Adenosine A2 receptor [1] = target: T1, Adenosine A2 receptor (Rattus norvegicus, UniProt P29276+P30543); experiment: Tested for inhibition of rat PC12 adenylate cyclase stimulation by using NECA as a radioligand; assay type: cell-based; settings: pc-12
Adenosine receptor A1 = target: T2, Adenosine receptor A1 (Rattus norvegicus, UniProt P25099); experiment: Binding affinity against adenosine A1 receptor in rat cortex by using [3H]- PIA as a radioligand; assay type: tissue-based
T2 sequence (P25099 whole entry): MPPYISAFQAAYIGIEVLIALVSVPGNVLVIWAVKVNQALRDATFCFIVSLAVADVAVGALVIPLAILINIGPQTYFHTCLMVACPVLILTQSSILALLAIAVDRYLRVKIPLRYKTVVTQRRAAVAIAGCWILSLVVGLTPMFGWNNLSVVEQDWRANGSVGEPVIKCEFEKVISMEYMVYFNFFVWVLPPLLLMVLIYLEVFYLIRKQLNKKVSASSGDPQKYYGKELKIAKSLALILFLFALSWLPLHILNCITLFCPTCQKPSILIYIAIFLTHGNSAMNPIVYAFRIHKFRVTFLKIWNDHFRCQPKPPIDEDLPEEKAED

Adenosine A2 receptor [2] = target: T1, Adenosine A2 receptor; experiment: Binding affinity against adenosine A2 receptor in rat striatum by using [3H]NECA as a radioligand; assay type: tissue-based
[3] = target: Adenosine receptors; A1 & A2 (Rattus norvegicus) (UniProt P29276+P25099+P30543); experiment: It is the ratio of Ki value of A1 receptor to that of A2 receptor.; assay type: protein assay
[4] = Hydrophobicity index; assay type: ADME
[5] = target: T3, Adenosine receptor A1 (Rattus norvegicus) (UniProt P25099); settings: 100 uM
T3 sequence (whole entry): T2 sequence (P25099 whole entry)
Description: Inhibition of [3H]PIA binding to adenosine A1 receptor of rat cortex at 100 uM

| SMILES | Ki (Adenosine A2 receptor [1]) [µM] | Ki (Adenosine receptor A1) [µM] | Ki (Adenosine A2 receptor [2]) [µM] | Selectivity ratio [3] | k' [4] | Inhibition [5] [%] |
| --- | --- | --- | --- | --- | --- | --- |
| Nc1ncnc2c1ncn2-c1ccccc1 | 74 | 19 | 38 | 2 | 0.56 | – |
| Cn1cnc2c(N)ncnc21 | 24 | 69 | 15 | 0.22 | 0.11 | – |
| Cn1cnc2c(NC3CCCCC3)ncnc21 | 21 | – | 13 | 14 | – | – |
| CCn1cnc2c(N)ncnc21 | 5.6 | – | 8.8 | 0.19 | 0.39 | – |
| CC[C@H](Nc1ncnc2c1ncn2C)c1ccccc1.Cl | 74 | 11 | 84 | 7.6 | – | – |
| Cn1cnc2c(NC3CCCC3)ncnc21 | 25 | – | 11 | 26 | 1.29 | – |
| CCn1cnc2c(NC3CCCC3)ncnc21 | 10.3 | – | 17 | 39 | 1.66 | – |
| Nc1ncnc2c1ncn2C1CCCO1 (stereo not given) | 2.4 | – | 23 | 0.82 | 0.21 | – |
| Cn1cnc2c(N)nc(Cl)nc21 | 16 | 23 | 11 | 0.48 | 0.22 | – |
| CC[C@@H](Nc1ncnc2c1ncn2C)c1ccccc1.Cl | 25 | 2.5 | 55 | 22 | – | – |
| Nc1ncnc2c1ncn2CCO | 12 | > 100 | 46 | < 0.5 | 0.04 | 30 |

More lines, now with the values ahead:

| Ki (Adenosine A2 receptor [1]) [µM] | Ki (Adenosine receptor A1) [µM] | Ki (Adenosine A2 receptor [2]) [µM] | Selectivity ratio [3] | k' [4] | Inhibition [5] [%] | SMILES |
| --- | --- | --- | --- | --- | --- | --- |
| 17 | 2.8 | 12 | 4.3 | – | – | CC[C@H](Nc1nc(Cl)nc2c1ncn2C)c1ccccc1 |
| 4.3 | 3.3 | 6.8 | 2.1 | – | – | CC[C@@H](Nc1nc(Cl)nc2c1ncn2C)c1ccccc1 |
| 6.3 | 0.53 | 9.3 | 18 | 3.37 | – | Cn1cnc2c(NC3CCCC3)nc(Cl)nc21 |
| 21 | 7 | 31 | 4.4 | – | – | Cn1cnc2c(Nc3ccccc3)nc(Cl)nc21 |
| 11 | 4.7 | 15 | 3.2 | – | – | CC[C@@H](Nc1ncnc2c1ncn2-c1ccccc1)c1ccccc1 |
| 30 | 1.7 | 39 | 23 | 1.81 | – | c1nc(NC2CCCC2)c2ncn(C3CCCO3)c2n1 (stereo not given) |
| 47 | 8.7 | 79 | 9.1 | 3.91 | – | c1ccc(-n2cnc3c(NC4CCCC4)ncnc32)cc1 |
| 107 | 6.9 | 68 | 9.9 | – | – | Cn1cnc2c(Nc3ccccc3)ncnc21 |
| 5.1 | 1.2 | 19 | 16 | 4.99 | – | c1nc(NC2CCCC2)c2ncn(C3CCCC3)c2n1 |
| 9.9 | 7.2 | 18 | 2.5 | – | – | CC[C@H](Nc1ncnc2c1ncn2-c1ccccc1)c1ccccc1 |
| 3.4 | 1.8 | 8.2 | 4.6 | 1.94 | – | Nc1ncnc2c1ncn2C1CCCC1 |
| 50 | 6.9 | 111 | 16 | – | – | c1ccc(Nc2ncnc3c2ncn3-c2ccccc2)cc1 |
| 27 | 3.3 | 47 | 14 | 0.68 | – | OCCn1cnc2c(NC3CCCC3)ncnc21 |
| 8.5 | 2 | 11 | 5.5 | – | – | CCn1cnc2c(NC3CCCCC3)ncnc21 |
